One assay addresses Histone deacetylase 1 (Homo sapiens, UniProt Q13547). The experiment in a line: Inhibition of HDAC activity measured by HDAC Fluorescent Activity Assay (mean of two experiments). In kind it is functional.
Another assay deals with MCF7. The experiment in a line: Inhibition of MCF7 cell proliferation (mean of two experiments). It is filed as functional, cell-based. The conditions noted are these: Homo sapiens.
For another assay, the system named is MDA-MB-231. The assay can be described thus: cells. It is filed as functional, cell-based. The conditions noted are these: Homo sapiens.
The next assay relates to HCT-116. The experiment in a line: cells. In kind it is functional, cell-based. Conditions: Homo sapiens.

Bounds are passed on as bounds.

As usually defined, the IC50 is the concentration that inhibits the measured activity by half. Lower therefore signals higher potency.

Sequence of Histone deacetylase 1 (Q13547 whole entry): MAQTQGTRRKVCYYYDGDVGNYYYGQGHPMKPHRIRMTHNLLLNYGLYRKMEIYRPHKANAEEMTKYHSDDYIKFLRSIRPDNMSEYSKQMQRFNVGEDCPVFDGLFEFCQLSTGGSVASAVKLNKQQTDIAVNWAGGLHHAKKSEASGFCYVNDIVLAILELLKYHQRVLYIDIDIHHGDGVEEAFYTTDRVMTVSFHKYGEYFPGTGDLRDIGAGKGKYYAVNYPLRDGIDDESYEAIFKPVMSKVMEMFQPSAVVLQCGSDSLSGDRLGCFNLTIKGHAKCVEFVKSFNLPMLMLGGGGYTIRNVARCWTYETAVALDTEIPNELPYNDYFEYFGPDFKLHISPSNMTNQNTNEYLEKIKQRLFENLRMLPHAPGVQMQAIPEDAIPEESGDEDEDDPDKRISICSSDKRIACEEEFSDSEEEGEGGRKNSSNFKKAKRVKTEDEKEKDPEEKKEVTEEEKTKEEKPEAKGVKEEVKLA
Description for HCT-116: Inhibition of HCT116 cell proliferation (mean of two experiments)
Description for MDA-MB-231: Inhibition of MDA-MB-231 cell proliferation (mean of two experiments)

Regarding `O=C(NO)c1ccc(-c2ccc(CCNCCc3ccccc3)cn2)s1`, the IC50 on Histone deacetylase 1 was found to be 31 nM; in the assay with MCF7 it was 140 nM.
As for `CN(Cc1ccccc1)Cc1ccc(-c2ccc(C(=O)NO)s2)nc1`, the IC50 on Histone deacetylase 1 was determined as 35 nM; in the assay on MDA-MB-231, 370 nM; in the assay with MCF7 it was 150 nM.
In the case of `O=C(NO)c1ccc(-c2cccc(CNCCc3ccccc3)n2)s1`, the IC50 at Histone deacetylase 1 is 581 nM; with MCF7, 3840 nM.
As to `O=C(NO)c1ccc(-c2ccc(CNCCc3cccc4occc34)cn2)s1`, the figures for the IC50 in the assay with HCT-116, against Histone deacetylase 1 and with MCF7 were 120 nM, 4 nM and 60 nM, respectively.
For `O=C(NO)c1ccc(-c2ccc(CNCc3ccccc3Cl)cn2)s1`, the concentration for half-maximal inhibition (IC50) against Histone deacetylase 1 is 7 nM; in the assay with MDA-MB-231, 170 nM; in the assay with MCF7, 110 nM.
For `Cc1cccc(CCNCc2ccc(-c3ccc(C(=O)NO)s3)nc2)c1`, the half-inhibitory concentration (IC50) in the assay on HCT-116 was found to be 90 nM; against Histone deacetylase 1 it was 9 nM; in the assay on MCF7, 60 nM.
On to `O=C(NO)c1ccc(-c2ccc(CN3CCc4ccccc4C3)cn2)s1`, for which the IC50 against Histone deacetylase 1 was 30 nM; with MDA-MB-231 it was 860 nM; in the assay on MCF7, 220 nM.
Consider `O=C(NO)c1ccc(-c2ccc(NCCc3ccccc3)cn2)s1`, for which the IC50 on Histone deacetylase 1 was 80 nM; in the assay with MDA-MB-231, 3510 nM; with MCF7, 1470 nM.
As to `O=C(NO)c1ccc(-c2ccc(CNCc3ccc(-c4ccccc4)cc3)cn2)s1`, the IC50 came to 180 nM in the assay with HCT-116, 7 nM against Histone deacetylase 1 and 150 nM in the assay on MCF7.
Turning to `O=C(NO)c1ccc(-c2ccc(CNCCc3ccccc3)cn2)s1`, the IC50 turned out to be 12 nM at Histone deacetylase 1, 200 nM in the assay with MDA-MB-231 and 70 nM in the assay on MCF7.
`O=C(NO)c1ccc(-c2cccs2)s1`: the IC50 on Histone deacetylase 1 is 2500 nM; in the assay on MCF7 it was over 100000 nM.
For the molecule `O=C(NO)c1ccc(-c2ccccn2)s1`, the results for the IC50 against Histone deacetylase 1, in the assay on MDA-MB-231 and in the assay with MCF7 were 243 nM, 11000 nM and 2250 nM, respectively.
For the molecule `O=C(NO)c1ccc(-c2ccc(CNCCc3c[nH]c4ccccc34)cn2)s1`, the IC50 with HCT-116 turned out to be 180 nM; on Histone deacetylase 1 it was 8 nM; in the assay with MCF7, 120 nM.
Take `O=C(NO)c1ccc(-c2ccccc2)s1`: the IC50 against Histone deacetylase 1 is 900 nM; with MCF7, 31000 nM.
Turning to `O=C(NO)c1ccc(-c2ccc(CNCc3ccc(Cl)cc3)cn2)s1`, the IC50 came out at 9 nM at Histone deacetylase 1, 300 nM with MDA-MB-231 and 130 nM in the assay on MCF7.
Take `O=C(NO)c1ccc(-c2ccc(CNCCc3ccccc3Cl)cn2)s1`: the results for the half-inhibitory concentration (IC50) with HCT-116, at Histone deacetylase 1 and with MCF7 were 80 nM, 6 nM and 80 nM, respectively.
`O=C(NO)c1ccc(-c2cccc(CNCc3ccccc3)n2)s1`: the figures for the IC50 against Histone deacetylase 1 and with MCF7 were 359 nM and 1900 nM, respectively.
Regarding `Cc1ccc(CCNCc2ccc(-c3ccc(C(=O)NO)s3)nc2)cc1`, the IC50 is 60 nM with HCT-116, 14 nM against Histone deacetylase 1 and 60 nM in the assay on MCF7.
Consider `O=C(NO)c1ccc(-c2ccc(CNCCc3ccc(F)cc3)cn2)s1`, for which the figures for the IC50 in the assay on HCT-116, against Histone deacetylase 1 and with MCF7 were 100 nM, 9 nM and 80 nM, respectively.
The like results for `O=C(NO)c1ccc(-c2ccc(CCNCc3ccc4c(c3)OCO4)cn2)s1` were, in that order, 110 nM, 9 nM and 70 nM.
`O=C(NO)c1ccc(-c2ccc(CCNCc3ccccc3)cn2)s1`: the results for the IC50 on Histone deacetylase 1, in the assay on MDA-MB-231 and in the assay on MCF7 were 9 nM, 210 nM and 80 nM, respectively.
The like results for `O=C(NO)c1ccc(-c2ccc(CNc3ccccc3)cn2)s1` were, in that order, 16 nM, 630 nM and 370 nM.
The like results for `O=C(NO)c1ccc(-c2ccc(CNCCCc3ccccc3)cn2)s1` were, in that order, 18 nM, 250 nM and 120 nM.
The like results for `O=C(NO)c1ccc(-c2ccc(CNCCOc3ccccc3)cn2)s1` were, in that order, 11 nM, 300 nM and 110 nM.
As to `COc1ccccc1CCNCc1ccc(-c2ccc(C(=O)NO)s2)nc1`, the IC50 in the assay on HCT-116 was 80 nM; against Histone deacetylase 1 it was 17 nM; with MCF7, 60 nM.
With `O=C(NO)c1ccc(-c2ccc(CNCc3ccc4c(c3)OCCO4)cn2)s1`, the values for the 50% inhibitory concentration (IC50) in the assay with HCT-116, against Histone deacetylase 1 and with MCF7 were 90 nM, 11 nM and 50 nM, respectively.
In the case of `O=C(NO)c1ccc(-c2ccncc2)s1`, 1260 nM corresponded to half-maximal inhibition against Histone deacetylase 1 (IC50).
In the case of `O=C(NO)c1ccc(-c2ncccn2)s1`, the IC50 on Histone deacetylase 1 stood at 186 nM; in the assay with MCF7, 2120 nM.
Consider `O=C(NO)c1ccc(-c2cccnc2)s1`, for which the IC50 against Histone deacetylase 1 came out at 1130 nM.
For `Cc1ccccc1CCNCc1ccc(-c2ccc(C(=O)NO)s2)nc1`, the IC50 stood at 70 nM in the assay on HCT-116, 8 nM against Histone deacetylase 1 and 90 nM with MCF7.
The like results for `O=C(NO)c1ccc(-c2ccc(CNCc3ccc4c(c3)OCO4)cn2)s1` were, in that order, 70 nM, 8 nM and 50 nM.
`O=C(NO)c1ccc(-c2ccc(CNCCc3ccccc3F)cn2)s1`: the concentration for half-maximal inhibition (IC50) in the assay on HCT-116 is 100 nM; at Histone deacetylase 1 it was 12 nM; in the assay with MCF7, 90 nM.
For `O=C(NO)c1ccc(-c2ccc(CCNCc3ccc(F)cc3)cn2)s1`, the IC50 is 140 nM with HCT-116, 13 nM against Histone deacetylase 1 and 90 nM with MCF7.

The values are drawn from ChEMBL document CHEMBL1137593, “Identification and optimisation of a series of substituted 5-pyridin-2-yl-thiophene-2-hydroxamic acids as potent histone deacetylase (HDAC) inhibitors” (Bioorg Med Chem Lett, 2007).
